What was measured:
Format in all cases: cell-based
EpiDerm skin model = experiment: MTT viability, EpiDerm skin model
TNF-α = experiment: In vitro EpiDerm skin model, PMA irritant: TNF-α release; conditions: for TNFα + PMA / TNFα no PMA: EpiDerm skin model; for TNFα + PMA: + PMA irritant; for TNFα no PMA: no PMA irritant
Procedure: (§1) The purpose of the in vitro testing was to evaluate the potential anti-inflammatory action of compositions according to the present invention.
(§2) In vitro tests were carried out as follows: • take an irritant treated EpiDerm™ skin model. Initial inflammation was measured by the cytokine release after exposure to a single dose of irritant. • apply test compositions to the irritant treated EpiDerm skin • anti-inflammatory potential was then measured by reduction in cytokine release • specifically, the levels of cytokines TNF-α, IL-6 and IL-8 were measured to give a picture of the performance of the product across the lifecycle of an acne event or related skin inflammation.
(§3) Experimental design follows standard procedures, using phorbol-12-myristate 13-acetate (PMA) as irritant. Test samples were applied by pipette as solutions to the Epiderm tissue, and each sample was tested in triplicate against positive and negative controls. Anti-inflammatory activity measured by relative decrease in cytokine release in irritant-treated tissue compared to non-irritant treated tissue.
(§4) The separate active components of an example according to the invention were tested, along with some combinations in pairs and one combination lacking the salicylic acid. Where these actives were applied, they were in the same w/w ratio as in the example composition, example 9.

IL-6 = experiment: In vitro EpiDerm skin model, PMA irritant: IL-6 release; conditions: for IL-6 + PMA: + PMA irritant; for IL-6 no PMA: no PMA irritant
Procedure: as §1, §2, §3, §4

IL-8 = experiment: In vitro EpiDerm skin model, PMA irritant: IL-8 release; conditions: no PMA irritant (first IL-8 column, c6)
Procedure: as §1, §2, §3, §4

CC1(C)[C@@H](O[C@H]2O[C@H](C(=O)[O-])[C@@H](O)[C@H](O)[C@H]2O[C@@H]2O[C@H](C(=O)[O-])[C@@H](O)[C@H](O)[C@H]2O)CC[C@]2(C)[C@H]3C(=O)C=C4[C@@H]5C[C@@](C)(C(=O)O)CC[C@]5(C)CC[C@@]4(C)[C@]3(C)CC[C@@H]12.[K+].[K+] [Dipotassium glycyrrhizinate (GLYR)]
MTT < 95% (EpiDerm skin model): 93.7% | TNFα + PMA (TNF-α): 78.48 pg/mL | TNFα no PMA (TNF-α): -0.636 pg/mL | IL-6 + PMA (IL-6): 7.591 pg/mL | IL-6 no PMA (IL-6): -1.781 pg/mL | IL-8 no PMA (IL-8): 44.413 pg/mL

NC(=O)c1cccnc1 [Nicotinamide (NA)]
MTT < 95% (EpiDerm skin model): 96.8% | TNFα + PMA (TNF-α): 40.202 pg/mL | TNFα no PMA (TNF-α): -0.171 pg/mL | IL-6 + PMA (IL-6): -2.712 pg/mL | IL-6 no PMA (IL-6): -4.294 pg/mL | IL-8 no PMA (IL-8): 47.54 pg/mL

C[C@]12CCC(=O)C=C1CC[C@@H]1[C@@H]2[C@@H](O)C[C@@]2(C)[C@H]1CC[C@]2(O)C(=O)CO [Positive control (hydrocortisone)]
TNFα + PMA (TNF-α): -0.378 pg/mL | IL-6 + PMA (IL-6): -4.358 pg/mL

O=C(O)c1ccccc1O [Salicylic acid (SCA)]
MTT < 95% (EpiDerm skin model): 103.2% | TNFα + PMA (TNF-α): 12.265 pg/mL | TNFα no PMA (TNF-α): -0.068 pg/mL | IL-6 + PMA (IL-6): 6.159 pg/mL | IL-6 no PMA (IL-6): -1.445 pg/mL | IL-8 no PMA (IL-8): 72.757 pg/mL

CC(O)C(=O)[O-].[Na+] (stereo not drawn) [Sodium Lactate (SLA)]
MTT < 95% (EpiDerm skin model): 99.1% | TNFα + PMA (TNF-α): 92.434 pg/mL | TNFα no PMA (TNF-α): 0.882 pg/mL | IL-6 + PMA (IL-6): 22.6 pg/mL | IL-6 no PMA (IL-6): 4.909 pg/mL | IL-8 no PMA (IL-8): 104.549 pg/mL

O=C(O)c1ccccc1O [salicylic acid, reference compound]
anti-inflammatory action (reduction in cytokine release) (TNF-α; irritant (PMA) treated EpiDerm skin model, cytokines TNF-α, IL-6 and IL-8 taken together): acts inter alia as an anti-inflammatory

From patent US11135457B2, “Skincare compositions” (Reckitt Benckiser Healthcare International Limited, priority 2009, dated 2021)
